“And” between values parts separate entries of the source, which are not always exact repeats. Equal values may be shown once.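 Briefly, cells in 96-well plates were exposed to five compound concentrations for 48 h, and endpoints were estimated by linear interpolation. GI50 is the concentration that inhibits growth by half. TGI denotes the concentration required for complete inhibition of growth.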 Bounds are passed on as bounds.

The test deals with MDA-MB-468 breast. Put plainly: NCI tumour cell line growth inhibition, 48 h.
In the case of `CNC(=O)c1cc(OC2CCC(NC(=O)Nc3ccc(Cl)c(C(F)(F)F)c3)CC2)ccn1` (configuration not stated), the GI50 was 3.35 µM and the TGI amounted to 14.5 µM.

On to `COc1cc(C2CC(c3ccc(C)cc3)=NN2C=O)ccc1Oc1ccnc2cc(Cl)ccc12` (configuration not stated), for which the GI50 was 2.59 µM and the TGI came to 37.8 µM.

Regarding `O=C(NNc1nc(Cl)nc(N2CCN(C(c3ccccc3)c3ccccc3)CC2)n1)c1ccccc1`, the GI50 is 1.9 µM and the TGI stood at 6.03 µM.

On to `CN(C)c1cccc2c(S(=O)(=O)N[C@H]3CC[C@H]4[C@@H]5CCc6cc(O)ccc6[C@H]5CC[C@]34C)cccc12`, for which the GI50 was 2.1 µM and the TGI turned out to be 9.71 µM.

For the compound `O=C(CCCCCCSc1nc(-c2ccccc2)cc(-c2ccc(Cl)cc2)n1)NO`, the GI50 was 2.02 µM and the TGI came out at 5.79 µM.

Turning to `C=C1C(=O)O[C@H]2[C@H]1CC/C(Cn1cc(CNC(=O)Cc3cn(C(=O)c4ccc(Cl)cc4)c4ccc(OC)cc34)nn1)=C\CC[C@@]1(C)O[C@@H]21`, the GI50 is 1.22 µM and the TGI came to 2.95 µM.

Take `COc1cc(C2C=C(c3cccc(NC(C)=O)c3)Nc3ncnn32)cc(OC)c1OC` (configuration not stated): the GI50 is 0.852 µM and the TGI was greater than 23.8 µM.

In the case of `O=C(Nc1ccc(N2CCNCC2)cc1)c1[nH]ncc1Nc1ncnc2sc3c(c12)CCC3`, the GI50 was 0.481 µM and the TGI turned out to be 2.23 µM.

For `COc1ccc(-c2nn3ncccc3c2-c2ccnc(Nc3ccc(Cl)c(C(F)(F)F)c3)n2)cc1`, the GI50 is 5.81 µM and the TGI was greater than 20.9 µM.

With `CCOC(=O)c1c2c(n3ccc(NC(=O)CCN4CCCC4)cc13)C(=O)c1ncccc1C2=O`, the GI50 was 1.71 µM and the TGI was 3.35 µM.

Turning to `COc1cc(/C(C#N)=C/c2ccc3c(c2OC)OCO3)cc2c1OCO2`, the GI50 is 0.0592 µM and the TGI is 2.07 µM.

As to `CC(=O)Nc1ccc2c(c1)c(C1=C(c3cn(C)c4ccccc34)C(=O)NC1=O)cn2C`, the GI50 is 0.79 µM and the TGI was greater than 25 µM.

With `Cc1cc(-c2ncc(CC(=O)Nc3ccc(-c4cnccn4)cn3)cc2C)ccn1`, the GI50 was 3.18 µM and the TGI is 57.5 µM.

For the compound `CCOC(=O)c1ccc(NC(=O)N2CC(C)OC(C)C2)cc1` (configuration not stated), the GI50 was greater than 100 µM and the TGI was greater than 100 µM.

On to `COc1ccc2nc(N/N=C(\C)c3ccccn3)cc(C)c2c1`, for which the GI50 is 0.233 µM and the TGI was 0.815 µM.

In the case of `C=C1C(=O)O[C@H]2[C@H]1CC/C(COC(=O)c1cc3cc(F)ccc3[nH]1)=C\CC[C@@]1(C)O[C@@H]21`, the GI50 was 1.86 µM and the TGI stood at 3.79 µM.

`COc1cc(-c2nn(-c3ccc(NC(=O)c4ccc(Cl)c(Cl)c4)cc3)cc2-c2ccncc2)ccc1Cl`: the GI50 is 4.35 µM and the TGI is greater than 100 µM.

`COc1ccc(Cl)cc1Nc1nc(C(F)(F)F)ccc1C(=O)N/N=C/c1c(Cl)cccc1Cl`: the GI50 is 6.66 µM and the TGI is greater than 100 µM.

In the case of `COc1ccc(-c2nc3sc(C)cn3c2/C=C/C(=O)c2cc(OC)c(OC)c(OC)c2)cc1`, the GI50 is 2.76 µM and the TGI was 9.35 µM.

Turning to `COc1ccc2c(c1)[nH]c(=O)c1c3cc(C)c(C)cc3cn21`, the GI50 was 0.155 µM and the TGI was found to be 1.59 µM.

Regarding `O=C1NCc2ccc3c(-c4cccc(Cl)c4)c[nH]c3c21`, the GI50 is 0.231 µM and the TGI is greater than 23.1 µM.

In the case of `COCCOc1ccc2ncc(C#Cc3cncc(C(=O)Nc4ccc(CN5CCN(C)CC5)c(C(F)(F)F)c4)c3)n2n1`, the GI50 is 0.988 µM and the TGI was 2.8 µM.

`C=C1CC2(OC1=O)C(=O)N(CCCCCCCN1C(=O)C3(CC(=C)C(=O)O3)c3ccccc31)c1ccccc12` (configuration not stated): the GI50 is 0.984 µM and the TGI worked out at 3.74 µM.

Turning to `COc1cc2c(cc1OC)C(=O)/C(=C/c1cccc(OCC(=O)c3ccccc3)c1)C2`, the GI50 was 8.21 µM and the TGI was greater than 100 µM.

Take `O=c1oc2cc(OS(=O)(=O)c3ccc(F)cc3)ccc2c2c1CCCCC2`: the GI50 is 3.87 µM and the TGI was greater than 100 µM.

Regarding `Cc1ccc2[nH]cc(-c3nc(-c4c[nH]c5ncccc45)cs3)c2c1`, the GI50 is greater than 100 µM and the TGI is greater than 100 µM.

As to `Cc1ccc(-[n+]2c3cc(N)c(C)cc3nc3cc(C)c(Nc4ccccc4)cc32)cc1`, the GI50 is 0.108 µM and the TGI is 0.371 µM.

Regarding `COC(=O)N[C@H]1CCc2c(Br)c(OC)c(OC)c(OC)c2-c2ccc(SC)c(=O)cc21`, the GI50 was less than 0.01 µM and the TGI was 1.23 µM.

For `O=[N+]([O-])C1C(c2ccccc2)C12c1ccccc1-c1ccccc12` (configuration not stated), the GI50 was 0.582 µM and the TGI was determined as 13.6 µM.

Consider `Cc1ccc(CNc2c3ccccc3nc3ccccc23)cc1`, for which the GI50 is 1.49 µM and the TGI is 3.68 µM.

As to `O=C(CSc1nc2ccccc2[nH]1)Nc1ccc(-c2nc3ccccc3s2)c(Cl)c1`, the GI50 was 4.45 µM and the TGI was greater than 100 µM.

On to `CC(=O)O[C@H]1CC[C@@]2(C)C(=CC[C@@H]3[C@@H]2CC[C@]2(C)C(c4cccnc4)=CC[C@@H]32)C1`, for which the GI50 was 2.62 µM and the TGI is 17.5 µM.

On to `CCN(CC)CCOc1nc2ccc(OC)cc2c2c1-c1ccc(OC)cc1C2=O`, for which the GI50 was 3.37 µM and the TGI is 21.7 µM.

As to `CS(=O)(=O)CCNCc1nc(-c2ccc3ncnc(Nc4ccc(F)c(Cl)c4)c3c2)cs1`, the GI50 is 0.257 µM and the TGI was 2.75 µM.

For the compound `CNc1ccc2nc3ccc(=[N+](C)C)cc-3sc2c1`, the GI50 is 0.801 µM and 0.542 µM; the TGI was 2.89 µM and 3.05 µM.

Take `CCOc1cc2ncc(C#N)c(Nc3ccc(OCc4cccc(F)c4)c(Cl)c3)c2cc1NC(=O)CC1CCSS1` (configuration not stated): the GI50 was 0.427 µM and the TGI amounted to 1.22 µM.

Source of the values: PubChem BioAssay (NCI).
